Experimental data taken from patent publication US20220325245A1 (Board of Regents, The University of Texas System, priority 2019, published 2022).
Where two headings read alike, the source gives them in different places.

Legend:
NT CB-NK cells = experiment: Dimerizer effect on non-transduced cells (annexin-V/7AAD staining); assay type: cell-based; settings: 10 nM dimerizer
From the text: iC9/CAR.19/IL15+ CB-NK cells are eliminated after activation of the suicide gene by exposure to a small-molecule dimerizer. To counteract the possibility of excessive toxicity mediated by the release of inflammatory cytokines by transduced CB-NK cells or uncontrolled NK cell growth, we incorporated a suicide gene based on the inducible caspase-9 gene in the construct (Di et al., 2011). […] The suicide gene was also effective in vivo.

[1] = cited from earlier work
GVHD = settings: patients who had received Capsase-9+ T cells; cited from earlier work
CLL = settings: alone or in combination with a corticosteroid; cited from earlier work
[2] = cited from earlier work; remark: listed apart in the source
[3] = biological target: CD19 on CD19+ Raji cells and primary CLL cells (UniProt P15391); experiment: cell-based or functional assay
Chain of UniProt P15391 (P15391 20-556 limits assumed): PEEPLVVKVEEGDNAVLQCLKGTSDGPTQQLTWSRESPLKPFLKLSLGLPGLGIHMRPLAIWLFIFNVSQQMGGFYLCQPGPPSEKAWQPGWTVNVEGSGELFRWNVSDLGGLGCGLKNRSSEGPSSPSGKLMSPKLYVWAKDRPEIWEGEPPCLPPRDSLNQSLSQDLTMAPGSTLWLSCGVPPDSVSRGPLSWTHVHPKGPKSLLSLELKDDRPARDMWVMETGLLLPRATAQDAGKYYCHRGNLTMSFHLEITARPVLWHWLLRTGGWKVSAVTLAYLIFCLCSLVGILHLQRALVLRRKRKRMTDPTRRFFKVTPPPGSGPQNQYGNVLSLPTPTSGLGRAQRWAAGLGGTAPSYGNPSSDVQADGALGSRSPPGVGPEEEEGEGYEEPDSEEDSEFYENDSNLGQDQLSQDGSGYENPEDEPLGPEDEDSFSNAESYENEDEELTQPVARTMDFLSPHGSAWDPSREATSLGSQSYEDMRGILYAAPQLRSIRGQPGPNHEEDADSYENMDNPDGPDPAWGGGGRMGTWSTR

In the case of CC[C@H](C(=O)N1CCCC[C@H]1C(=O)O[C@H](CCc1ccc(OC)c(OC)c1)c1cccc(OCC(=O)NCCNC(=O)COc2cccc([C@@H](CCc3ccc(OC)c(OC)c3)OC(=O)[C@@H]3CCCCN3C(=O)[C@@H](CC)c3cc(OC)c(OC)c(OC)c3)c2)c1)c1cc(OC)c(OC)c(OC)c1 [AP1903], the “viability of NT CB-NK cells” value (NT CB-NK cells) is given as “no effect”, the plasma concentrations ([1]; 0.01 mg/kg to 1.0 mg/kg dose range) is given as 10 to 1275 ng/mL and the “plasma level, percent of maximum” value ([1]; 0.5 hrs post dose) is given as 18%. The “plasma level, percent of maximum” value ([1]; 2 hrs post dose) was 7% and the “time to response of GVHD” value (GVHD) was 24 to 48 h.

For O=C(O)CCCc1ccc(N(CCCl)CCCl)cc1 [chlorambucil], the complete remission rates (CLL) is listed as 5-20% and the overall response rate (CLL) is listed as 50-70%.

In the case of “RhIL-15: exogenous recombinant human IL-15”, the “maximum serum concentration (Cmax)” value ([2]; 0.3 μg/kg per day) is listed as 1,260±350 pg/mL, the “maximum serum concentration (Cmax)” value ([2]; 1.0 μg/kg per day) is listed as 15,900±1,900 pg/mL and the “maximum serum concentration (Cmax)” value ([2]; 3.0 μg/kg per day) is listed as 43,800±18,300 pg/mL. For the same molecule, the dose-limiting toxicities ([2]; 3.0 and 1.0 μg/kg per day) was “grade 3 hypotension, thrombocytopenia, and elevations of ALT and AST”, the maximum-tolerated dose ([2]; bolus infusions for 12 consecutive days) was 0.3 μg/kg per day and the immune cell activation ([2]; patients) was “activate NK cells, monocytes, γδ, and CD8 T cells”.

“anti-CD19 chimeric antigen receptor (scFv against CD19, human IgG CH2-CH3 hinge, CD28 transmembrane domain, CD28.CD3zeta signaling endodomain) expressed on cord blood NK cells from the iC9/CAR.19/IL15 retroviral vector” showed an IL15 release in culture supernatant with CD19+ CLL B cells (pg/mL/10^6 cells) [3] of 27.6.
